{"source": "patent US9790174B2", "about": "“Kinase inhibitors” (Respivert Limited, priority 2013, dated 2017)", "key": {"[1]": {"tested_on": "rat, Cynomolgus macaque or human hepatocytes", "test": "Analysis of metabolites in hepatocytes", "assay_type": "in vitro ADME", "conditions": "10 μM, 0, 60 and 90 minutes", "protocol": "Studies were conducted by BioFocus (Saffron Walden, UK) to determine the metabolic fate of the compound of Example 16 following incubation with rat, Cynomolgus macaque or human hepatocytes.\nSeparate incubations (n=3) of the compound of Example 16 (10 μM initial concentration) or DMSO control, were performed with cryopreserved hepatocytes from each species (0.5 million cell/mL) at 37° C. for 0, 60 and 90 minutes before termination of reactions and compound extraction with acetonitrile. Sample replicates were pooled prior to analysis.\nPotential metabolites were identified using time-of-flight (TOF) and triple quadruple (TQ) mass spectrometers."}, "B-Raf (V600E)": {"target": "B-Raf (V600E) (Homo sapiens (Human), UniProt P15056, V600E)", "sequence (P15056 whole entry V600E)": "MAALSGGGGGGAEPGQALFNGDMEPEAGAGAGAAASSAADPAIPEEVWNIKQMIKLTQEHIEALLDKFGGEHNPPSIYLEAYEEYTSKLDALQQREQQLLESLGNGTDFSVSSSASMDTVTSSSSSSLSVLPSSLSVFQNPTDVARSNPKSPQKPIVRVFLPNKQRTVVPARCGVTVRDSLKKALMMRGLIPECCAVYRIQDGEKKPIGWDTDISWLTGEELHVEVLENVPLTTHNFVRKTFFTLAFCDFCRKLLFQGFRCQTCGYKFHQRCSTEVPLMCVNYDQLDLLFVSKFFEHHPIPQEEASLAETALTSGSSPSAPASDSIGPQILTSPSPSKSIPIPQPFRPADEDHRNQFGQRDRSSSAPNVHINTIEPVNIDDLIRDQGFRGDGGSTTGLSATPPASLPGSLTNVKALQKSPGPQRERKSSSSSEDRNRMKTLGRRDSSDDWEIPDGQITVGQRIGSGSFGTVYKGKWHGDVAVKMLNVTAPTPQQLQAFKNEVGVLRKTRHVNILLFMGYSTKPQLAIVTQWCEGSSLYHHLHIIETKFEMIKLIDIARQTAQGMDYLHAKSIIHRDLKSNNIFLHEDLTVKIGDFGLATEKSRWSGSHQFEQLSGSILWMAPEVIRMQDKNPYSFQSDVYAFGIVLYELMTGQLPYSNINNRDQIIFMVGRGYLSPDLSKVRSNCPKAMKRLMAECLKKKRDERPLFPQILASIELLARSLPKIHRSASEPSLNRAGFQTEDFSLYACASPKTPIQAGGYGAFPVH", "test": "KINOMEscan binding of kinase to standard ligand", "protocol": "(§1) Kinase enzyme binding activities of compounds disclosed herein may be determined using a proprietary assay which measures active site-directed competition binding to an immobilized ligand (Fabian, M. A. et al., Nature Biotechnol., 2005, 23:329-336). These assays may be conducted by DiscoverX (formerly Ambit; San Diego, Calif.). The percentage inhibition produced by incubation with a test compound may be calculated relative to the non-inhibited control."}, "B-Raf": {"target": "B-Raf (Homo sapiens (Human), UniProt P15056)", "sequence (P15056 whole entry)": "as the sequence (P15056 whole entry V600E) above, with E600V counted along it", "test": "KINOMEscan binding of kinase to standard ligand", "protocol": "as §1"}, "[2]": {"tested_on": "intestinal mucosa biopsies from ulcerative colitis patients", "test": "Human biopsy assay (cytokine release from intestinal mucosa biopsies)", "assay_type": "cell-based", "conditions": "1 μg/mL, 24 hours", "protocol": "Intestinal mucosa biopsies are obtained from the inflamed regions of the colons of IBD patients. The biopsy material is cut into small pieces (2-3 mm) and placed on steel grids in an organ culture chamber at 37° C. in a 5% CO2/95% O2 atmosphere in serum-free media. DMSO control or test compounds at the desired concentration are added to the tissue and incubated for 24 hr in the organ culture chamber. The supernatant is harvested for determination of IL-6, IL-8, IL-1β and TNFα levels by R&D ELISA."}, "[3]": {"tested_on": "Salmonella typhimurium, strains TA98 and TA100", "test": "Mutagenicity assessment (bacterial reverse mutation screen)", "assay_type": "cell-based", "conditions": "TA98 and TA100, presence or absence of S-9 mix", "protocol": "Studies were conducted by Sequani (Ledbury, Herefordshire, UK) to assess compounds of the invention for their ability to induce mutations in two histidine dependent auxotrophic mutants of Salmonella typhimurium, strains TA98 and TA100 in vitro.\nThe mutation screen was conducted using the plate incorporation method and was performed in both the presence and absence of S-9 mix (a liver post-mitochondrial fraction derived from the livers of Aroclor 1254 treated rats). The bacteria were exposed to test compounds dissolved in dimethylsulphoxide, which solvent was also used as the negative control. The dose levels used were 0.32, 1.6, 8, 40, 200, 1000 or 5000 μg/plate."}, "TNBS-induced colitis": {"tested_on": "TNBS-induced colitis", "test": "TNBS-induced colitis in mice", "assay_type": "in vivo, BDF1 mice", "conditions": "conducted over 2 days; oral", "protocol": "Non-fasted, 10-12 week old, male BDF1 mice are dosed by oral gavage twice daily with either vehicle (5 mL/kg), reference item (Budesonide 2.5 mg/kg) or test compound (1 or 5 mg/kg) one day before (Day −1) stimulation of the inflammatory response by treatment with 2,4,6-trinitrobenzenesulphonic acid (TNBS) (15 mg/mL in 50% ethanol/50% saline). On Day 0 of the study TNBS (200 μL) is administered intra-colonically via a plastic catheter with BID dosing of the vehicle, reference or test compound continuing for 2 or 4 days. During the study, animals are weighed every day and stool observations are made and recorded as a score, based on stool consistency. At the time of sacrifice on Day 2 (or Day 4), the large intestine is removed and the length and weight recorded. Sections of the colon are taken for histopathology scoring to determine disease severity."}, "[4]": {"tested_on": "adoptive transfer colitis", "test": "Adoptive transfer in mice", "assay_type": "in vivo, SCID mice", "protocol": "On Study day 0, female Balb/C mice are terminated and spleens obtained for CD45RB^high cell isolation (Using SCID IBD cell Separation protocol). Approximately 4×10^5 cells/mL CD45RB^high cells are then injected intraperitoneally (100 μL/mouse) into female SCID animals. On study day 14, mice are weighed and randomized into treatment groups based on body weight. On Day 14, compounds are administered BID, via oral gavage, in a peanut oil vehicle at the dose levels outlined below in Tables 6a and 6b and a dose volume of 5 mL/kg. Treatment continues until study day 42, at which point the animals are necropsied 4 hours after the morning administration. The colon length and weight are recorded and used as a secondary endpoint in the study as a measurement of colon oedema. The colon is then divided into six cross-sections, four of which are used for histopathology scoring (primary endpoint) and two are homogenised for cytokine analysis. Data shown is the % inhibition of the induction window between nave animals and vehicle animals, where higher inhibition implies closer to the non-diseased, nave, phenotype."}, "non-mutant kinases": {"tested_on": "non-mutant kinases", "test": "KinomeScan selectivity scores", "assay_type": "binding", "conditions": "evidenced by lower selectivity scores", "protocol": "These assays may be conducted by DiscoverX (formerly Ambit; San Diego, Calif.). The percentage inhibition produced by incubation with a test compound may be calculated relative to the non-inhibited control."}, "GSK 3α": {"target": "GSK 3α (Homo sapiens (Human), UniProt P49840)", "sequence (P49840 whole entry)": "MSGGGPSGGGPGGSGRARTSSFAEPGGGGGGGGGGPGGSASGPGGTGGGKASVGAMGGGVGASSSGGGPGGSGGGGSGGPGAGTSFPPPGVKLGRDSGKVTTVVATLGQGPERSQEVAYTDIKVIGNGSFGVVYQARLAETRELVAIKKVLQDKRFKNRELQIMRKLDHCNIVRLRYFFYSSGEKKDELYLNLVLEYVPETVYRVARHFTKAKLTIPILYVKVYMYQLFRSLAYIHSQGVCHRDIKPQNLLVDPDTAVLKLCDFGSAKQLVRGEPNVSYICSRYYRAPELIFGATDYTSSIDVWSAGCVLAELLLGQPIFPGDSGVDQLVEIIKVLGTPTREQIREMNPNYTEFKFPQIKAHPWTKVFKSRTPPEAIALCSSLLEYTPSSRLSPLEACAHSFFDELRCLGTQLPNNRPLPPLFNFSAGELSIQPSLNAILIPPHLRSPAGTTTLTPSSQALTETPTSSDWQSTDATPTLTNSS", "test": "GSK 3α enzyme inhibition (Z-LYTE FRET, Method 1 / Method 2)", "assay_type": "biochemical", "conditions": "read-out: IC50 Values for Enzyme Inhibition GSK3α", "protocol": "The enzyme inhibitory activities of compounds disclosed herein are determined by FRET using synthetic peptides labelled with both donor and acceptor fluorophores (Z-LYTE, Invitrogen Ltd., Paisley, UK).\nThe following two assay variants can be used for determination of GSK 3α inhibition.\nThe inhibitory activities of compounds of the invention against the GSK 3α enzyme isoform (Invitrogen), are evaluated by determining the level of activation/phosphorylation of the target peptide. The GSK3-α protein (500 ng/mL, 2.5 μL) is mixed with the test compound (2.5 μL at either 4 μg/mL, 0.4 μg/mL, 0.04 μg/mL, or 0.004 μg/mL) for 2 hr at RT. The FRET peptide (8 μM, 2.5 μL), which is a phosphorylation target for GSK3α, and ATP (40 μM, 2.5 μL) are then added to the enzyme/compound mixture and the resulting mixture incubated for 1 hr. Development reagent (protease, 5 μL) is added for 1 hr prior to detection in a fluorescence microplate reader (Varioskan® Flash, ThermoFisher Scientific).\nIn all cases, the site-specific protease cleaves non-phosphorylated peptide only and eliminates the FRET signal. Phosphorylation levels of each reaction are calculated using the ratio of coumarin emission (donor) over fluorescein emission (acceptor), for which high ratios indicate high phosphorylation and low ratios indicate low phosphorylation levels. […]"}, "CYP2C9": {"target": "CYP2C9 (Homo sapiens (Human), UniProt P11712)", "sequence (P11712 whole entry)": "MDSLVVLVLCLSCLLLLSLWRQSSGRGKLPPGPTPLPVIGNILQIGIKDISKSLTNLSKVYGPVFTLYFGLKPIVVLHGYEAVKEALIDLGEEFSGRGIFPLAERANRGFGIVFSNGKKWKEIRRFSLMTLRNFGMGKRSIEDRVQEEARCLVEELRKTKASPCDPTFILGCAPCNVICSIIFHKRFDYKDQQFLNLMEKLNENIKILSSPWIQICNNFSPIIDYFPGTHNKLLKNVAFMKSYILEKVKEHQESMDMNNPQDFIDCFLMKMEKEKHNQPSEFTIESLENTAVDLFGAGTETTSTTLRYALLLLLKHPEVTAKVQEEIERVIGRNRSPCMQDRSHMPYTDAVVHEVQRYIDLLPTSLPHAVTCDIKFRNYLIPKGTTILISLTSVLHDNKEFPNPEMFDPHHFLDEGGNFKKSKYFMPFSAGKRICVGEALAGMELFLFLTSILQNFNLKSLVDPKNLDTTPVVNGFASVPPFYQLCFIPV", "test": "CYP2C9 inhibition studies", "assay_type": "in vitro ADME", "protocol": "Assessment of certain in vitro ADME (absorption, distribution, metabolism, and excretion) parameters for certain compounds of the invention was conducted by BioFocus (Saffron Walden, UK)."}, "[5]": {"test": "Hydrolytic stability study", "assay_type": "physicochemical", "conditions": "DMSO and water (3:1), 1 mg/mL, 60° C.", "protocol": "Chemical stability of compounds of the invention was assessed in a mixture of DMSO and water (3:1) at a test compound concentration of 1 mg/mL\nSample Preparation • A 1.0 mg sample of test compound was dissolved in 750 μL of DMSO. Water (250 μL) was added slowly, ensuring no precipitation occurred.\nRecording Stability • A 50 μL aliquot of the test solution was removed and analysed in duplicate by 5 μL HPLC injections. The peak area for the test compound was recorded following manual integration of the corresponding UV trace. • The test solution was heated to 60° C., with stirring, and 50 μL aliquots removed for HPLC analysis at 5 and 24 h timepoints."}}}
{"compound": "C#Cc1cc(Nc2nccc(Oc3ccc(NC(=O)Nc4cc(C(C)(C)C)cc(NS(C)(=O)=O)c4OC)c4ccccc34)n2)cc(C(=O)NCCOCCOCCOC)c1", "note": "[Example 16, 3-((4-((4-(3-(5-(tert-Butyl)-2-methoxy-3-(methylsulfonamido)phenyl)ureido)naphthalen-1-yl)oxy)pyrimidin-2-yl)amino)-5-ethynyl-N-(2-(2-(2-methoxyethoxy)ethoxy)ethyl)benzamide]", "values": [{"measurement": "metabolism at the naphthalene moiety", "setting": "[1]", "value": "no products were noted that could be connected to metabolism at the naphthalene moiety"}, {"measurement": "number of metabolites resulting from oxidation on the polyethylene glycol chain of the amide moiety", "setting": "[1]", "value": 8}, {"measurement": "effect on the binding of B-Raf (V600E) to its standard ligand", "setting": "B-Raf (V600E)", "value": "did not have any significant effect"}, {"measurement": "effect on the binding of B-Raf to its standard ligand", "setting": "B-Raf", "value": "did not have any significant effect"}, {"measurement": "cytokine (IL-1β, IL-6 and IL-8) release compared to the DMSO control", "setting": "[2]", "value": "significantly inhibited"}, {"measurement": "increases in revertant colonies", "setting": "[3]", "value": "no dose-related or statistically significant increases in revertant colonies"}, {"measurement": "activity in TNBS model of colonic inflammation (histopathology analysis)", "setting": "TNBS-induced colitis", "value": "displayed substantial activity"}, {"measurement": "activity in T cell driven model of colonic inflammation (ratios of colon weight to length)", "setting": "[4]; adoptive transfer", "value": "displayed significant activity"}, {"measurement": "levels of pro-inflammatory cytokines in samples of colon tissue", "setting": "[4]; adoptive transfer model", "value": "significantly reduced levels of pro-inflammatory cytokines"}, {"measurement": "selectivity compared to the Reference Compound", "setting": "non-mutant kinases", "value": "substantially improved selectivities"}]}
{"compound": "COc1cc(Nc2cc(Oc3ccc(NC(=O)Nc4cc(C(C)(C)C)cc(NS(C)(=O)=O)c4OC)c4ccccc34)ccn2)cc(C(=O)NCCN2CCNCC2)c1", "note": "[Example 85(q)]", "values": [{"measurement": "IC50", "setting": "GSK 3α", "value": 249, "unit": "nM"}]}
{"compound": "C#CC(C)(C)c1cc(NC(=O)Nc2ccc(Oc3ccnc(Nc4cc(C)c5[nH]ncc5c4)n3)c3ccccc23)n(-c2ccc(C)cc2)n1", "note": "[Ref Cpd A]", "values": [{"measurement": "% Inh (inhibition at 5 μM reported instead)", "setting": "CYP2C9; CYP2C9, 0 min preincubation", "value": "31^[†] %"}, {"measurement": "% Inh (inhibition at 5 μM reported instead)", "setting": "CYP2C9; CYP2C9, 30 min preincubation", "value": "66^[†] %"}]}
{"compound": "C#Cc1cc(Nc2nccc(Oc3ccc(NC(=O)Nc4cc(C(C)C)nn4-c4ccc(C)cc4)c4ccccc34)n2)cc(C(=O)NCCN2CCOCC2)c1", "note": "[Reference Compound B, 3-ethynyl-5-((4-((4-(3-(3-isopropyl-1-(p-tolyl)-1H-pyrazol-5-yl)ureido)naphthalen-1-yl)oxy)pyrimidin-2-yl)amino)-N-(2-morpholinoethyl)benzamide]", "values": [{"measurement": "decomposition", "setting": "[5]", "value": "underwent substantial decomposition"}]}
